Entries after “also recorded” stand apart in the source; their conditions may differ.
Legend:
Assay in all cases: Minimum inhibitory / bactericidal concentration (MIC/MBC) test, 96-well serial dilution
Escherichia coli J53 = type: cell-based; conditions: n=6
Protocol: (§1) A minimum inhibitory concentration (MIC) test was conducted to measure the efficiency of certain silver-based antimicrobials against each bacterial isolate. A sterile round-bottom plastic 96-well plate containing […] of serially 1:2 diluted concentrations of antimicrobial solutions was inoculated with […] of 5-8×10^5 CFU/ml of each bacterial isolate. Each antimicrobial sample was tested at 15 serially diluted concentrations starting at their original highest concentration (0.015-1000 μg/ml).
(§2) After 24 h of incubation, 10 μl of the suspension from all of the clear wells (showing no bacterial growth) was dropped onto a MH agar plate and incubated for 24 h.
(§3) The mass concentration of these nanoparticles dispersed in water was 1.0 mg/mL The Silvadur ET solution containing 2.6-3.1 wt % silver ions was used at its original concentration (1.0 mg/mL). Silver nitrate was also dissolved in distilled water to create a 1 mg/mL solution. A gram negative (Escherichia coli J53) and gram positive (staphylococcus aureus—a common bacteria to cause skin infections) bacteria were employed for the experiment. Cation-adjusted Mueller-Hinton (MH) broth and agar (Difco Laboratories, Detroit, Mich., USA) were utilized to prepare bacterial cultivating medium. Isolated bacterial colonies were grown overnight in an incubator (37° C., 5% CO2) from frozen samples on an agar plate. For Agresistant bacteria (E. coli J53 [pMG101]), […] ampicillin sodium salt (Fisher Scientific, USA) was also added to the agar plates. The bacterial colony was suspended in phosphate buffered saline (PBS) to obtain 0.5 McFarland (10^5 CFU/ml). Microplates were incubated at 37° C. and shaken at 200 rpm for 24 hours. To control the accuracy of bacterial seeding density, bacteria were diluted in PBS at 103, 104, 105, and 106 and cultured overnight.
(§4) A gram negative (Escherichia coli J53) and gram positive (staphylococcusaureus, a common bacteria that causes skin infections) bacteria were employed for the experiment. Cation-adjusted Mueller-Hinton (MH) broth and agar (Difco Laboratories, Detroit, Mich., USA) were used to prepare bacterial cultivating medium. Isolated bacterial colonies were grown overnight in an incubator (37° C., 5% CO2) from frozen samples on an agar plate. For Ag-resistant bacteria (E. coli J53 [pMG101]) […] ampicillin sodium salt (Fisher Scientific, USA) was also added to the agar plates. The bacterial colony was suspended in phosphate buffered saline (PBS) to get 0.5 McFarland (10^5 CFU/ml). Microplates were incubated at 37° C. and shaken at 200 rpm for 24 h. To control the accuracy of bacterial seeding density, bacteria were diluted in PBS at 10^3, 10^4, 10^5, and 10^6 and plated overnight.
as §1, with “The minimum” for “A minimum”, “of silver based” for “of certain silver-based”, “μg/ml). […] After 24 h of incubation, 10 μl of the suspension from all of the clear wells (showing no bacterial growth) was dropped onto a MH agar plate and incubated for 24 h.” for “μg/ml).”

Staphylococcus aureus = type: cell-based; conditions: n=6
Protocol: as §1, §2, §3, §4
as §1, with “The minimum” for “A minimum”, “of silver based” for “of certain silver-based”, “μg/ml). […] After 24 h of incubation, 10 μl of the suspension from all of the clear wells (showing no bacterial growth) was dropped onto a MH agar plate and incubated for 24 h.” for “μg/ml).”

[1] = system: E. Coli J53pMG101 (silver resistant); type: cell-based, Escherichia coli; conditions: up to 1000 μg/ml
Protocol: as §1, §2
The mass concentration of these nanoparticles dispersed in water was 1.0 mg/mL The Silvadur ET solution containing 2.6-3.1 wt % silver ions was used at its original concentration (1.0 mg/mL). Silver nitrate was also dissolved in distilled water to create a 1 mg/mL solution. A gram negative (Escherichia coli J53) and gram positive (staphylococcus aureus—a common bacteria to cause skin infections) bacteria were employed for the experiment. Cation-adjusted Mueller-Hinton (MH) broth and agar (Difco Laboratories, Detroit, Mich., USA) were utilized to prepare bacterial cultivating medium. Isolated bacterial colonies were grown overnight in an incubator (37° C., 5% CO2) from frozen samples on an agar plate. […]

[2] = Table 1, Example 1, 24 h incubation

O=[N+]([O-])[O-].[Ag+] [Silver nitrate]
Minimum Inhibitory Concentrations (MIC) Escherichia coli J53 (Escherichia coli J53; [2]): 7.81 µg/mL | Minimum Bacterial Concentrations (MBC) Escherichia coli J53 (Escherichia coli J53; Table 2, Example 1): 15.62 µg/mL | Minimum Inhibitory Concentrations (MIC) Escherichia coli J53 (Escherichia coli J53; Table 9, Example 4): 7.81 µg/mL | Minimum Bacterial Concentrations (MBC) Escherichia coli J53 (Escherichia coli J53; Table 10, Example 4): 15.62 µg/mL | Minimum Inhibitory Concentrations (MIC) Staphylococcus aureus (Staphylococcus aureus; [2]): 15.62 µg/mL | Minimum Bacterial Concentrations (MBC) Staphylococcus aureus (Staphylococcus aureus; Table 2, Example 1): 31.25 µg/mL | Minimum Inhibitory Concentrations (MIC) Staphylococcus aureus (Staphylococcus aureus; Table 9, Example 4): 15.62 µg/mL | Minimum Bacterial Concentrations (MBC) Staphylococcus aureus (Staphylococcus aureus; Table 10, Example 4): 31.25 µg/mL | Observation of silver resistant E. coli J53 (pMG101) in the presence of the antimicrobial [1]: confirmed the resistance of E. coli J53 to silver; also recorded: confirmed its resistance to silver
